According to the supplement of paper PMC13380429:

What was measured:
Conditions in all cases: 72 h
[1] = system: HepG2; assay: drug sensitivity score (DSS) for viability; higher = more toxic; extreme values may be limits of the assay
[2] = system: Vero E6; assay: as above
[3] = system: Calu-3; assay: as above
[4] = system: U2OS; assay: as above
[5] = system: Caco-2; assay: as above
[6] = system: HepG2; assay: cell viability relative to DMSO; higher = less toxic
[7] = system: Vero E6; assay: as above
[8] = system: Calu-3; assay: as above
[9] = system: U2OS; assay: as above
[10] = system: Caco-2; assay: as above
[11] = system: HepG2; assay: relative viability EC50 (midpoint between 100% and the lowest measured viability); higher = less toxic
[12] = system: Vero E6; assay: as above
[13] = system: Calu-3; assay: as above
[14] = system: U2OS; assay: as above
[15] = system: Caco-2; assay: as above

| Compound | drug sensitivity score [1] | drug sensitivity score [2] | drug sensitivity score [3] | drug sensitivity score [4] | drug sensitivity score [5] | cell viability ([6]; 1 nM) [%] | cell viability ([6]; 10 nM) [%] | cell viability ([6]; 100 nM) [%] | cell viability ([6]; 1000 nM) [%] | cell viability ([6]; 10000 nM) [%] | cell viability ([7]; 1 nM) [%] | cell viability ([7]; 10 nM) [%] | cell viability ([7]; 100 nM) [%] | cell viability ([7]; 1000 nM) [%] | cell viability ([7]; 10000 nM) [%] | cell viability ([8]; 1 nM) [%] | cell viability ([8]; 10 nM) [%] | cell viability ([8]; 100 nM) [%] | cell viability ([8]; 1000 nM) [%] | cell viability ([8]; 10000 nM) [%] | cell viability ([9]; 1 nM) [%] | cell viability ([9]; 10 nM) [%] | cell viability ([9]; 100 nM) [%] | cell viability ([9]; 1000 nM) [%] | cell viability ([9]; 10000 nM) [%] | cell viability ([10]; 1 nM) [%] | cell viability ([10]; 10 nM) [%] | cell viability ([10]; 100 nM) [%] | cell viability ([10]; 1000 nM) [%] | cell viability ([10]; 10000 nM) [%] | relative viability EC50 [11] [µM] | relative viability EC50 [12] [µM] | relative viability EC50 [13] [µM] | relative viability EC50 [14] [µM] | relative viability EC50 [15] [µM] |
| --- | --- | --- | --- | --- | --- | --- | --- | --- | --- | --- | --- | --- | --- | --- | --- | --- | --- | --- | --- | --- | --- | --- | --- | --- | --- | --- | --- | --- | --- | --- | --- | --- | --- | --- | --- |
| COc1cc2c(cc1C(F)(F)F)N(C(=O)Nc1cc(F)cc(-c3cccnc3)c1)CC2 | 0 | 0 | 0 | 0 | 0 | 99.5 | 90.9 | 103 | 96.4 | 113 | 96.9 | 96.1 | 99.4 | 99.9 | 95.1 | 102 | 91.7 | 92.9 | 101 | 93.9 | 100 | 105 | 97.4 | 103 | 95.9 | 96.8 | 104 | 89.8 | 99 | 98.6 | > 10 | > 10 | > 10 | > 10 | > 10 |
| c1ccc2nc(C3=NCCN3)ccc2c1 [BU-224] | 0.1 | 0 | 0 | 0 | 0.3 | 104 | 94.3 | 94.2 | 99.8 | 87.2 | 98.7 | 99.5 | 97.3 | 102 | 99 | 98.5 | 106 | 106 | 89.3 | 119 | 99.8 | 98.8 | 99.2 | 95.6 | 98.8 | 97.7 | 96.9 | 101 | 88.7 | 90.2 | > 10 | > 10 | > 10 | > 10 | > 10 |
| S=C=Nc1ccc(N=C=S)cc1 [bitoscanate] | 0 | 0 | 0 | 0 | 0 | 97.9 | 82.6 | 103 | 91 | 105 | 90.7 | 93.6 | 93.5 | 92.2 | 104 | 104 | 103 | 94.6 | 95.3 | 102 | 94.2 | 101 | 96.3 | 100 | 105 | 91.8 | 96.6 | 101 | 106 | 103 | > 10 | > 10 | > 10 | > 10 | > 10 |
| N=C(N)NCCCC[C@@H]1NC(=O)CCSSC[C@@H](C(N)=O)NC(=O)[C@@H]2CCCN2C(=O)[C@H](Cc2c[nH]c3ccccc23)NC(=O)[C@H](CC(=O)O)NC(=O)CNC1=O [eptifibatide] | 0 | 0.9 | 0 | 0 | 0 | 97 | 92.6 | 94.7 | 87.1 | 95.5 | 105 | 95.2 | 100 | 94.8 | 83.3 | 96.4 | 104 | 100 | 103 | 101 | 96.6 | 97.4 | 93.7 | 98.5 | 96 | 94.6 | 99.5 | 85.8 | 95.4 | 95.6 | > 10 | > 10 | > 10 | > 10 | > 10 |
| Cc1cccc(N(C)C(=S)Oc2ccc3ccccc3c2)c1 [tolnaftate] | 0 | 0.1 | 0 | 0 | 0 | 100 | 100 | 91.6 | 97.9 | 93.8 | 101 | 102 | 98.5 | 91.8 | 88.6 | 98 | 90 | 94 | 94.6 | 101 | 99.1 | 99.2 | 94.9 | 100 | 93.3 | 93.3 | 99.7 | 94 | 94.8 | 96.8 | > 10 | > 10 | > 10 | > 10 | > 10 |
| COc1ccc(-c2ccc(=N)n(CCCC(=O)O)n2)cc1 [gabazine] | 0 | 0 | 0 | 0 | 0 | 91.5 | 97 | 96.8 | 95.4 | 100 | 99.5 | 100 | 98.9 | 95.9 | 96 | 94.8 | 104 | 95.1 | 98 | 93.5 | 102 | 98.5 | 100 | 97.1 | 103 | 111 | 106 | 99.9 | 105 | 103 | > 10 | > 10 | > 10 | > 10 | > 10 |
| S=C=Nc1cccc(NC(=S)NCCCCNC(=S)Nc2cccc(N=C=S)c2)c1 [MRS-2578] | 0 | 0 | 0 | 0 | 0 | 107 | 104 | 110 | 97.7 | 103 | 98.3 | 98.8 | 94.2 | 99.5 | 98.7 | 90.7 | 93.6 | 109 | 90.2 | 107 | 95.9 | 95.8 | 99.5 | 97.2 | 104 | 100 | 91.2 | 99.7 | 98.4 | 101 | > 10 | > 10 | > 10 | > 10 | > 10 |
| C=CC1=C(C)C2=CC3=NC(=C(CC(=O)O)C4=NC(=C(C)C4=C(O)O)C=c4[nH]c(c(C)c4CC)=CC1=N2)C(CCC(=O)O)C3C (stereo not given) [chlorophyllin] | 0 | 0 | 0 | 0 | 0 | 97.3 | 106 | 115 | 112 | 106 | 100 | 99.9 | 95.7 | 96.9 | 92.6 | 111 | 89.7 | 93.2 | 101 | 116 | 97.7 | 96.1 | 100 | 96 | 103 | 102 | 104 | 96.6 | 91 | 91.4 | > 10 | > 10 | > 10 | > 10 | > 10 |
| Oc1cccc(Nc2ccc(Nc3cccc(O)c3)nn2)c1 [beta-amyloid-synthesis-inhibitor] | 0 | 0 | 0 | 0 | 0 | 102 | 101 | 97.9 | 98.6 | 104 | 92.4 | 97.3 | 93.8 | 98 | 95.5 | 115 | 94.9 | 98.1 | 106 | 102 | 106 | 97.1 | 100 | 100 | 106 | 101 | 90.4 | 109 | 101 | 94.4 | > 10 | > 10 | > 10 | > 10 | > 10 |
| N#CN1CCCC1 [pyrrolidine-1-carbonitrile] | 0 | 0 | 0 | 0 | 0 | 90.6 | 91.1 | 94.4 | 95.2 | 101 | 99.6 | 99.2 | 98.2 | 95.3 | 105 | 97.6 | 104 | 108 | 107 | 97.9 | 90.3 | 98 | 97.9 | 104 | 107 | 103 | 94.7 | 95.4 | 95.9 | 110 | > 10 | > 10 | > 10 | > 10 | > 10 |
| COC(=O)CN1CN(c2ccccc2)C2(CCN(Cc3cccc4ccccc34)CC2)C1=O [NNC-63-0532] | 0 | 0 | 0 | 0 | 0 | 93.5 | 104 | 99.6 | 95 | 99.8 | 90.2 | 97.3 | 96.5 | 90.7 | 103 | 98.2 | 106 | 97.7 | 114 | 102 | 100 | 96.1 | 94.9 | 102 | 98.7 | 102 | 96.3 | 95 | 99.7 | 96.9 | > 10 | > 10 | > 10 | > 10 | > 10 |
| CCC(CC)O[C@@H]1C=C(C(=O)O)C[C@H](N)[C@H]1NC(C)=O [oseltamivir-carboxylate] | 0 | 0 | 0 | 0 | 0 | 104 | 99.3 | 108 | 95.5 | 115 | 98.4 | 99.7 | 98.1 | 95.9 | 104 | 98.9 | 98.6 | 98.6 | 98.2 | 103 | 100 | 99.8 | 97.2 | 102 | 105 | 89.8 | 96.8 | 99.7 | 99.5 | 101 | > 10 | > 10 | > 10 | > 10 | > 10 |
| O=C(c1ccc(F)cc1)C1CCN(CCn2c(=O)[nH]c3ccccc3c2=O)CC1 [ketanserin] | 0 | 0 | 0 | 0 | 0 | 102 | 95 | 97.3 | 102 | 97.2 | 96.9 | 94.9 | 97.8 | 101 | 103 | 96.2 | 95.8 | 90.3 | 92.9 | 102 | 90 | 98.3 | 96.1 | 103 | 106 | 93.1 | 100 | 95.6 | 99.7 | 96.9 | > 10 | > 10 | > 10 | > 10 | > 10 |
| CCc1ccc(OCc2ccccc2C(=O)Nc2ccc3nc(C)cc(N)c3c2)cc1 [JTC-801] | 7.4 | 6.4 | 5.6 | 5.9 | 6.8 | 114 | 95.6 | 102 | 89 | -0.1 | 101 | 99.7 | 102 | 94.1 | -0.1 | 97.7 | 102 | 100 | 100 | 0.2 | 96 | 99.2 | 96.6 | 97.8 | -0.1 | 97.8 | 94.5 | 90.4 | 91.9 | 0.6 | 2.25 | 2.69 | 3.18 | 3 | 2.49 |
